Measurements as given in ChEMBL document CHEMBL3352748, “Lead optimization of imidazopyrazines: a new class of antimalarial with activity on Plasmodium liver stages” (ACS Med Chem Lett, 2014).
≈ marks a conversion by molar mass, not a printed value.

Legend:
Plasmodium falciparum = test: Antiplasmodial activity against schizont blood stage Plasmodium falciparum; format: functional, organism-based
Plasmodium yoelii = test: Antiplasmodial activity against blood stage schizont Plasmodium yoelii; format: functional, organism-based
Plasmodium cynomolgi [1] = test: Antiplasmodial activity against hypnozoite liver stage Plasmodium cynomolgi; format: functional, organism-based
[2] = Solubility of the compound at pH 6.8 by HT-equilibrium solubility assay; format: physicochemical; conditions: buffer
[3] = Hepatic extraction ratio in mouse liver microsomes by LC/MS analysis; format: ADME; conditions: read-out: ERH
[4] = Half life in mouse liver microsomes by LC/MS analysis; format: ADME
Plasmodium cynomolgi [5] = test: Antiplasmodial activity against schizont liver stage Plasmodium cynomolgi; format: functional, organism-based
[6] = Tmax in mouse at 20 mg/kg, po; format: ADME, organism-based; design: dose 20 mg/kg, route oral; conditions: in vivo
[7] = Half life in mouse at 5 mg/kg, iv; format: ADME, organism-based; design: dose 5 mg/kg, route intravenous; conditions: in vivo
[8] = Cmax in mouse at 20 mg/kg, po; format: ADME, organism-based; design: dose 20 mg/kg, route oral; conditions: in vivo
[9] = AUC in mouse at 20 mg/kg, po; format: ADME, organism-based; design: dose 20 mg/kg, route oral; conditions: plasma
[10] = Clearance in mouse at 5 mg/kg, iv; format: ADME, organism-based; design: dose 5 mg/kg, route intravenous; conditions: in vivo
[11] = Volume of distribution at steady state in mouse at 5 mg/kg, iv; format: ADME, organism-based; design: dose 5 mg/kg, route intravenous; conditions: in vivo, read-out: Vdss
[12] = Oral bioavailability in mouse at 20 mg/kg; format: ADME, organism-based; conditions: in vivo
[13] = Half life in mouse at 20 mg/kg, po; format: ADME, organism-based; design: dose 20 mg/kg, route oral; conditions: in vivo
Plasmodium berghei = test: Antimalarial activity against Plasmodium berghei infected in mouse assessed as animal protection at 30 mg/kg, po by causal prophylactic activity assay relative to untreated control; format: functional

| Structure (SMILES) | IC50 (Plasmodium falciparum) | IC50 (Plasmodium yoelii) | IC50 (Plasmodium cynomolgi [1]) | solubility thermodynamic [2] | hepatic extraction ratio [3] | half-life [4] | IC50 (Plasmodium cynomolgi [5]) | Tmax [6] | half-life [7] | Cmax [8] | AUC [9] | clearance [10] | Vd [11] | bioavailability [12] | half-life [13] | Activity (Plasmodium berghei) |
| --- | --- | --- | --- | --- | --- | --- | --- | --- | --- | --- | --- | --- | --- | --- | --- | --- |
| CN(C(=O)c1ccc2ncc(-c3ccc(C#N)cc3)n2c1)c1ccccc1 | 600 nM | > 10000 nM | > 10000 nM | – | – | – | – | – | – | – | – | – | – | – | – | – |
| CN(C(=O)c1ccc2ncc(-c3ccc(C(F)(F)F)cc3)n2c1)c1ccc(C#N)cc1 | 11 nM | 5400 nM | > 10000 nM | – | – | – | – | – | – | – | – | – | – | – | – | – |
| CN(C(=O)c1cn2c(-c3ccc(C(F)(F)F)cc3)cnc2cn1)c1ccc(C#N)cc1 | 63 nM | 160 nM | 810 nM | 9 µM (≈ 3.79 µg/mL) | 0.4 | 82 min | 120 nM | – | – | – | – | – | – | – | – | – |
| CN(C(=O)c1cn2c(-c3ccc(C(F)(F)F)cc3)cnc2cn1)c1ccc(Cl)nc1 | 275 nM | 200 nM | – | – | – | – | – | – | – | – | – | – | – | – | – | – |
| CN(C(=O)c1cn2c(-c3ccc(C(F)(F)F)cc3)cnc2cn1)c1ccc(C#N)nc1 | 1630 nM | 3630 nM | – | – | – | – | – | – | – | – | – | – | – | – | – | – |
| Cc1ccc(N(C)C(=O)c2cn3c(-c4ccc(C(F)(F)F)cc4)cnc3cn2)nn1 | > 10000 nM | > 10000 nM | – | – | – | – | – | – | – | – | – | – | – | – | – | – |
| CN(C(=O)c1cn2c(-c3ccc(C(F)(F)F)cc3)cnc2cn1)c1nc2ccccc2s1 | 9580 nM | > 10000 nM | – | – | – | – | – | – | – | – | – | – | – | – | – | – |
| CN(Cc1ccc(F)cc1)C(=O)c1cn2c(-c3ccc(C(F)(F)F)cc3)cnc2cn1 | > 10000 nM | > 10000 nM | – | – | – | – | – | – | – | – | – | – | – | – | – | – |
| CN1CCC(N(C)C(=O)c2cn3c(-c4ccc(C(F)(F)F)cc4)cnc3cn2)CC1 | > 10000 nM | > 10000 nM | – | – | – | – | – | – | – | – | – | – | – | – | – | – |
| CN(C(=O)c1cn2c(-c3ccc(-c4ccn[nH]4)cc3)cnc2cn1)c1ccc(C#N)cc1 | 32 nM | 46 nM | 300 nM | – | – | – | 300 nM | – | – | – | – | – | – | – | – | – |
| CN(C(=O)c1cn2c(-c3ccc(-c4nnc(N)s4)cc3)cnc2cn1)c1ccc(C#N)cc1 | 22 nM | 19 nM | 60 nM | < 5 µM | – | – | 40 nM | 102 min | 127 min | 0.02 µM | 0.12 µM·h | 16.2 mL/min/kg | 0.99 L/kg | 0.24% | 203 min | – |
| CN(C(=O)c1cn2c(-c3ccc(C(N)=O)cc3)cnc2cn1)c1ccc(F)cc1 | 56 nM | 62 nM | 260 nM | 170 µM (≈ 66.2 µg/mL) | 0.52 | 57 min | 190 nM | 30 min | 37.2 min | 8.3 µM | 11.1 µM·h | 39.7 mL/min/kg | 0.9 L/kg | 51.6% | 81 min | 80% |
| CNC(=O)c1ccc(-c2cnc3cnc(C(=O)N(C)c4ccc(C#N)cc4)cn23)cc1 | 131 nM | 290 nM | 94 nM | 430 µM (≈ 176 µg/mL) | 0.33 | 125 min | 81 nM | 30 min | 25.2 min | 5.2 µM | 12.4 µM·h | 34 mL/min/kg | 1.02 L/kg | 51.9% | 97.8 min | 80% |
| CNC(=O)c1ccc(-c2cnc3cnc(C(=O)N(C)c4ccc(Cl)cc4)cn23)cc1 | 58 nM | 36 nM | 196 nM | 820 µM (≈ 344 µg/mL) | 0.49 | 63 min | 105 nM | 30 min | 49.8 min | 20.5 µM | 31.2 µM·h | 19.3 mL/min/kg | 0.96 L/kg | 60% | 218 min | – |
